According to US20250326739A1, “CD38 MODULATORS AND USES THEREOF” (Aeovian Pharmaceuticals, Inc., priority 2022, published 2025):
Structures can show the parent of a compound that is named as a salt.

Key:
[1] = target: human CD38 (Homo sapiens (Human), UniProt P28907); assay: NAD+ cyclase activity assay with human recombinant CD38 protein; type: biochemical; details: 1.9 nM human CD38, 15.8 μM e-NAD substrate, fluorescence read-out
Procedure: (§1) Example 5: NAD^+ Cydase Activity Assay with Human or Mouse Recombinant CD38 Protein
(§2) The following assay was used to determine the ability of compounds of the invention to inhibit the hydrolysis of NAD^+ by the human or mouse enzyme, CD38.
(§3) Reaction buffer: 40 mM HEPES/NaOH pH 7.5, 250 mM sucrose, 0.01% Tween
(§4) Final concentrations: 0.6 nM mouse CD38 (4947-AC, Bio-Techne GmbH) 1.9 nM human CD38 (AVI2404, Bio-Techne GmbH)
(§5) Substrate: 15.8 μM Nicotinamide 1,N6-ethenoadenine dinucleotide (E-NAD)
(§6) Read-out: Fluorescence intensity (extinction 300 nm/emission 410 nm)
(§7) Required reaction buffer, required CD38 concentration in reaction buffer and required e-NAD concentration in reaction buffer were prepared. Thereafter, 8 μL of CD38 in reaction buffer were added to High Control and compound concentration wells in 384 well plate (Corning #4514, 384 well, nonbinding surface, low volume, round bottom) and 8 μL of reaction buffer to Low Control. Compound dilutions were transferred via pintool technology that transfers 42.5 nL compound dilutions (12-point dose-response with factor three dilutions in 100% DMSO) well-to-well. Plate was subsequently shaken for 15 s at 1450 rpm and sealed for incubation for 30 min at room temperature. Thereafter, 2 μL of e-NAD in reaction buffer were added with Integra Voyager. After shaking for 15 s at 1450 rpm, plate was sealed, and assay signal was measured continuously with PHERAstar® fluorescence intensity module (extinction 300 nm/emission 410 nm).
(§8) Dose-response curves were constructed using twelve-point factor three dilutions in triplicates per plate. High control (full enzyme activity) was set to assay signal of CD38 and e-NAD in presence of vehicle (DMSO) and Low control (full enzyme inhibition) was set to assay signal of e-NAD and vehicle (DMSO) in absence of CD38. For data analysis, fluorescent signal of traces corresponding to each compound concentration and High and Low control was monitored over time. Each run, High Control (full enzyme activity) was fitted to Linear equation via GraphPad Prism to determine CD38 activity from the slope and determine the time interval of linear phase of reaction to account for minor fluctuations. Thereafter, slopes of all compound concentrations were determined via fitting to same linear equation (GraphPad Prism) over the same time interval as determined for High control. Percentage inhibition was calculated via normalization to High and Low Control via the equation: %−inhibition=100*(1−((Sample−Low control)/(High control−Low control))) Half maximal inhibitory concentration (IC50) values are yielded from the inflection point of the corresponding curve by fitting of resulting percentage inhibition values to standard equation (4 Parameter Logistic Model or Sigmoidal Dose-Response Model) via Excel Fit. Unless otherwise stated, fitting of curves was fixed to 100%-inhibition and unlocked for 0%-inhibition.

[2] = target: mouse CD38 (Mus musculus (Mouse), UniProt P56528); assay: NAD+ cyclase activity assay with mouse recombinant CD38 protein; type: biochemical; details: 0.6 nM mouse CD38, 15.8 μM e-NAD substrate, fluorescence read-out
Procedure: as §1, §2, §3, §4, §5, §6, §7, §8

Chain of mouse CD38 (P56528 whole entry): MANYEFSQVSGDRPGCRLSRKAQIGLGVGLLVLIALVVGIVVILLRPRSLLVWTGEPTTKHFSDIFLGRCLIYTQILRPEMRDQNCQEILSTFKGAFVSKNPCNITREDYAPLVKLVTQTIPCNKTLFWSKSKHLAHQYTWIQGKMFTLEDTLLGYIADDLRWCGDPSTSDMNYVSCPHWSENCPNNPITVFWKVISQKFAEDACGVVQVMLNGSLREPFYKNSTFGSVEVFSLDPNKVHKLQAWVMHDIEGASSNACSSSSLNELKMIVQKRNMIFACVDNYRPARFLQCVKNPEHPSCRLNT
Chain of human CD38 (P28907 whole entry): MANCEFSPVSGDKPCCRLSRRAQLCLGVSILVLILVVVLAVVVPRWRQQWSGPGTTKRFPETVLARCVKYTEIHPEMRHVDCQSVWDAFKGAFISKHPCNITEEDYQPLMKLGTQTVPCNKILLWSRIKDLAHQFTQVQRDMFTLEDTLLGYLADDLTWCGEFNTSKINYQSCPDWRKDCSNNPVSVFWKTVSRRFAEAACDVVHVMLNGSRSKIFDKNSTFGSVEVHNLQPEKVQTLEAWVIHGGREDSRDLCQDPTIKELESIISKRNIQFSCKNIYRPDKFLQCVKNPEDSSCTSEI

Row | SMILES | IC50 [1] [µM] | IC50 [2] [µM]
1 | Cc1cc(C(=O)N[C@H]2CCNC2)nc(-n2ccnc2)c1 [Compound 41A, (S)-6-(1H-Imidazol-1-yl)-4-methyl-N-(pyrrolidin-3-yl)picolinamide hydrochloride] | > 1 | > 0.1
2 | Cc1cc(C(=O)N[C@H]2CCCNC2)nc(-n2ccnc2)c1 [Compound 48A, (S)-6-(1H-Imidazol-1-yl)-4-methyl-N-(piperidin-3-yl)picolinamide dihydrochloride] | > 1 | 0.01 to 0.1
3 | Cc1cc(C(=O)N[C@@H]2CCCNC2)nc(-n2ccnc2)c1 [Compound 51A, (R)-6-(1H-Imidazol-1-yl)-4-methyl-N-(piperidin-3-yl)picolinamide dihydrochloride] | > 1 | > 0.1
4 | Cc1cc(C(=O)N[C@@H]2CCNC2)nc(-n2ccnc2)c1 [Compound 52A, (R)-6-(1H-Imidazol-1-yl)-4-methyl-N-(pyrrolidin-3-yl)picolinamide dihydrochloride] | > 1 | > 0.1
5 | Cc1cc(C(=O)N[C@@H]2CCN(S(C)(=O)=O)C2)nc(-n2ccnc2)c1 [Compound 53A, (R)-6-(1H-Imidazol-1-yl)-4-methyl-N-(1-(methylsulfonyl)pyrrolidin-3-yl)picolinamide] | 0.1 to 1 | 0.001 to 0.01
6 | Cc1cc(C(=O)N[C@H]2CCS(=O)(=O)C2)nc(-n2ccnc2)c1 [Compound 55A, (S)—N-(1,1-Dioxidotetrahydrothiophen-3-yl)-6-(1H-imidazol-1-yl)-4-methylpicolinamide] | 0.1 to 1 | 0.001 to 0.01
7 | Cc1cc(C(=O)N[C@@H]2CCCN(C)C2=O)nc(-n2ccnc2)c1 [Compound 56A, (R)-6-(1H-Imidazol-1-yl)-4-methyl-N-(1-methyl-2-oxopiperidin-3-yl)picolinamide] | > 1 | > 0.1
8 | Cc1cc(C(=O)N[C@@H]2CCCNC2=O)nc(-n2ccnc2)c1 [Compound 58A, (R)-6-(1H-Imidazol-1-yl)-4-methyl-N-(2-oxopiperidin-3-yl)picolinamide] | > 1 | 0.01 to 0.1
9 | Cc1cc(C(=O)N[C@@H]2CCCN(C)C2)nc(-n2ccnc2)c1 [Compound 59A, (R)-6-(1H-Imidazol-1-yl)-4-methyl-N-(1-methylpiperidin-3-yl)picolinamide] | > 1 | 0.01 to 0.1
10 | Cc1cc(C(=O)N[C@H]2CCCNC2=O)nc(-n2ccnc2)c1 [Compound 60A, (S)-6-(1H-Imidazol-1-yl)-4-methyl-N-(2-oxopiperidin-3-yl)picolinamide] | 0.1 to 1 | 0.001 to 0.01
11 | Cc1cc(C(=O)N[C@@H]2CCC(=O)NC2=O)nc(-n2ccnc2)c1 [Compound 63A, (R)—N-(2,6-Dioxopiperidin-3-yl)-6-(1H-imidazol-1-yl)-4-methylpicolinamide] | > 1 | 0.01 to 0.1
12 | Cc1cc(C(=O)N[C@H]2CCC(C)(C)OC2)nc(-n2ccnc2)c1 [Compound 65A, (S)—N-(6,6-Dimethyltetrahydro-2H-pyran-3-yl)-6-(1H-imidazol-1-yl)-4-methylpicolinamide] | 0.1 to 1 | 0.001 to 0.01

Results, then the compound that gave them:

Row | IC50 [1] [µM] | IC50 [2] [µM] | SMILES
13 | < 0.03 | 0.001 to 0.01 | Cc1cc(C(=O)NC2CCCCCC2)nc(-n2ccnc2)c1 [Compound 34A, N-Cycloheptyl-6-(1H-imidazol-1-yl)-4-methylpicolinamide]
14 | < 0.03 | 0.001 to 0.01 | Cc1cc(C(=O)NC2CCC(F)(F)C2)nc(-n2ccnc2)c1 (centres unmarked) [Compound 35A, N-(3,3-Difluorocyclopentyl)-6-(1H-imidazol-1-yl)-4-methylpicolinamide]
15 | 0.1 to 1 | 0.001 to 0.01 | Cc1cc(C(=O)NC2CCCS(=O)(=O)C2)nc(-n2ccnc2)c1 (centres unmarked) [Compound 36A, N-(1,1-Dioxidotetrahydro-2H-thiopyran-3-yl)-6-(1H-imidazol-1-yl)-4-methylpicolinamide]
16 | 0.1 to 1 | 0.001 to 0.01 | Cc1cc(C(=O)N[C@H]2CCOC2)nc(-n2ccnc2)c1 [Compound 38A, (S)-6-(1H-Imidazol-1-yl)-4-methyl-N-(tetrahydrofuran-3-yl)picolinamide]
17 | 0.03 to 0.1 | 0.001 to 0.01 | Cc1cc(C(=O)N[C@@H]2CCOC2)nc(-n2ccnc2)c1 [Compound 42A, (R)-6-(1H-Imidazol-1-yl)-4-methyl-N-(tetrahydrofuran-3-yl)picolinamide]
18 | < 0.03 | 0.001 to 0.01 | Cc1cc(C(=O)N[C@@H]2CCN(C(=O)OC(C)(C)C)C2)nc(-n2ccnc2)c1 [Compound 43A, tert-Butyl (R)-3-(6-(1H-imidazol-1-yl)-4-methylpicolinamido)pyrrolidine-1-carboxylate]
19 | < 0.03 | < 0.001 | Cc1cc(C(=O)N[C@@H]2CCCOC2)nc(-n2ccnc2)c1 [Compound 44A, (R)-6-(1H-Imidazol-1-yl)-4-methyl-N-(tetrahydro-2H-pyran-3-yl)picolinamide]
20 | 0.1 to 1 | 0.001 to 0.01 | Cc1cc(C(=O)N[C@H]2CCCOC2)nc(-n2ccnc2)c1 [Compound 45A, (S)-6-(1H-Imidazol-1-yl)-4-methyl-N-(tetrahydro-2H-pyran-3-yl)picolinamide]
21 | 0.1 to 1 | 0.001 to 0.01 | Cc1cc(C(=O)N[C@H]2CCN(S(C)(=O)=O)C2)nc(-n2ccnc2)c1 [Compound 46A, (S)-6-(1H-imidazol-1-yl)-4-methyl-N-(1-(methylsulfonyl)pyrrolidin-3-yl)picolinamide]
22 | 0.1 to 1 | 0.001 to 0.01 | Cc1cc(C(=O)N[C@H]2CCCN(C(=O)OC(C)(C)C)C2)nc(-n2ccnc2)c1 [Compound 47A, tert-Butyl (S)-3-(6-(1H-imidazol-1-yl)-4-methylpicolinamido)piperidine-1-carboxylate]
23 | 0.03 to 0.1 | 0.001 to 0.01 | Cc1cc(C(=O)N[C@@H]2CCCN(C(=O)OC(C)(C)C)C2)nc(-n2ccnc2)c1 [Compound 49A, tert-Butyl (R)-3-(6-(1H-imidazol-1-yl)-4-methylpicolinamido)piperidine-1-carboxylate]
24 | 0.1 to 1 | 0.001 to 0.01 | Cc1cc(C(=O)N[C@H]2CCCN(S(C)(=O)=O)C2)nc(-n2ccnc2)c1 [Compound 50A, (S)-6-(1H-Imidazol-1-yl)-4-methyl-N-(1-(methylsulfonyl)piperidin-3-yl)picolinamide]
25 | 0.03 to 0.1 | 0.001 to 0.01 | Cc1cc(C(=O)N[C@@H]2CCCN(S(C)(=O)=O)C2)nc(-n2ccnc2)c1 [Compound 54A, (R)-6-(1H-Imidazol-1-yl)-4-methyl-N-(1-(methylsulfonyl)piperidin-3-yl)picolinamide]
26 | 0.03 to 0.1 | 0.001 to 0.01 | Cc1cc(C(=O)N[C@@H]2CCCS(=O)(=O)C2)nc(-n2ccnc2)c1 [Compound 57A, (R)—N-(1,1-Dioxidotetrahydro-2H-thiopyran-3-yl)-6-(1H-imidazol-1-yl)-4-methylpicolinamide]
27 | < 0.03 | < 0.001 | Cc1cc(C(=O)NC2CCN(S(C)(=O)=O)CC2)nc(-n2ccnc2)n1 [Compound 61A, 2-(1H-Imidazol-1-yl)-6-methyl-N-(1-(methylsulfonyl)piperidin-4-yl)pyrimidine-4-carboxamide]
28 | < 0.03 | 0.001 to 0.01 | O=C(N[C@@H]1CCCOC1)c1cc(C(F)(F)F)cc(-n2ccnc2)n1 [Compound 62A, (R)-6-(1H-imidazol-1-yl)-N-(tetrahydro-2H-pyran-3-yl)-4-(trifluoromethyl)picolinamide]
29 | 0.03 to 0.1 | 0.001 to 0.01 | Cc1cc(C(=O)N[C@@H]2CCC(C)(C)OC2)nc(-n2ccnc2)c1 [Compound 64A, (R)—N-(6,6-Dimethyltetrahydro-2H-pyran-3-yl)-6-(1H-imidazol-1-yl)-4-methylpicolinamide]
30 | 0.03 to 0.1 | < 0.001 | Cc1cc(C(=O)N[C@H]2COCC(F)(F)C2)nc(-n2ccnc2)c1 [Compound 66A, (R)—N-(5,5-Difluorotetrahydro-2H-pyran-3-yl)-6-(1H-imidazol-1-yl)-4-methylpicolinamide]
31 | < 0.03 | < 0.001 | Cc1cc(C(=O)N[C@@H]2CCS(=O)(=O)C2)nc(-n2ccnc2)n1 [Compound 68A, (R)—N-(1,1-Dioxidotetrahydrothiophen-3-yl)-2-(1H-imidazol-1-yl)-6-methylpyrimidine-4-carboxamide]
